# “Also recorded” adds a separate entry of the source.
# Legend:
# [1] = Dispersion stability test in water (absorbance at 650 nm); type: physicochemical; settings: FIG. 6; for change in turbidity of the water suspension: after 6 hours
# Method: MEL-B or MEL-C at a concentration of 10 mg/mL was added to water, stirred and suspended. Its absorbance at 650 nm was measured.
# [2] = test system: three-dimensional skin model (Test Skin LSE-002 or 003; Toyobo) treated with SDS; assay: Skin roughness model: three-dimensional skin model defatted with SDS, cell viability by MTT (absorbance of formazan); type: cell-based; settings: for cell viability (absorbance of formazan): dissolved in olive oil, added on Test Skin treated with 1% SDS, left overnight, MTT kit
Substance,change in turbidity of the water suspension [1],"skin roughness improvement compared with MEL-A ([2]; FIG. 4 legend, three-dimensional skin model treated with SDS, viability)",cell viability (absorbance of formazan) [2],"dispersion stability ([1]; 10 mg/mL in water, stirred and suspended, absorbance at 650 nm)"
mannosylerythritol lipid B [MEL-B],little observable change in turbidity,increased skin roughness improvement over MEL-A,increased in a MEL-B-concentration-dependent manner,
mannosylerythritol lipid A [MEL-A],,,increased in a MEL-A-concentration-dependent manner,
mannosylerythritol lipid C [MEL-C],little observable change in turbidity,,increased in a MEL-C-concentration-dependent manner,particularly excellent in dispersion stability; also recorded: more excellent than MEL-A in water dispersion stability

# — patent US20110257116A1, “BIOSURFACTANT-CONTAINING SKIN CARE COSMETIC AND SKIN ROUGHNESS-IMPROVING AGENT” (National Institute Of Advanced Industrial Science And …, priority 2005, published 2011)
